Experimental data taken from PubChem BioAssay AID2060487 (Molecular Pharmacology Branch, DTP, NCI, 2025).

Test system: 997537-175-T-J1-PDC complex spheroid viability
Test: Anticancer human tumor 997537-175-T-J1-PDC patient-derived colon adenocarcinoma cell line growth inhibition [GQUAD]
Settings: for IC50: curve of first compound; for viability, T/C: stronger effect = lower value; active = viability on the fitted dose curve at most 10% of control; inactive = the rest
How it was run: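 Multi-cell-type spheroids of tumor cells with HUVEC and mesenchymal stem cells, treated with drug combinations. Concentrations descend in half-log steps from near clinical Cmax, or from 10 microM where Cmax is unknown; viability read-out.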

[1] = second compound 0.0316 µM, first compound 0.0316 µM
[2] = second compound 0.0316 µM, first compound 0.1 µM
[3] = second compound 0.0316 µM, first compound 0.316 µM
[4] = second compound 0.0316 µM, first compound 1 µM
[5] = second compound 0.0316 µM, first compound 3.16 µM
[6] = second compound 0.0316 µM, first compound 10 µM
[7] = second compound 0.1 µM, first compound 0.0316 µM
[8] = second compound 0.1 µM, first compound 0.1 µM
[9] = second compound 0.1 µM, first compound 0.316 µM
[10] = second compound 0.1 µM, first compound 1 µM
[11] = second compound 0.1 µM, first compound 3.16 µM
[12] = second compound 0.1 µM, first compound 10 µM
[13] = second compound 0.316 µM, first compound 0.0316 µM
[14] = second compound 0.316 µM, first compound 0.1 µM
[15] = second compound 0.316 µM, first compound 0.316 µM
[16] = second compound 0.316 µM, first compound 1 µM
[17] = second compound 0.316 µM, first compound 3.16 µM
[18] = second compound 0.316 µM, first compound 10 µM
[19] = second compound 1 µM, first compound 0.0316 µM
[20] = second compound 1 µM, first compound 0.1 µM
[21] = second compound 1 µM, first compound 0.316 µM
[22] = second compound 1 µM, first compound 1 µM
[23] = second compound 1 µM, first compound 3.16 µM
[24] = second compound 1 µM, first compound 10 µM
[25] = second compound 3.16 µM, first compound 0.0316 µM
[26] = second compound 3.16 µM, first compound 0.1 µM
[27] = second compound 3.16 µM, first compound 0.316 µM
[28] = second compound 3.16 µM, first compound 1 µM
[29] = second compound 3.16 µM, first compound 3.16 µM
[30] = second compound 3.16 µM, first compound 10 µM
[31] = second compound 10 µM, first compound 0.0316 µM
[32] = second compound 10 µM, first compound 0.1 µM
[33] = second compound 10 µM, first compound 0.316 µM
[34] = second compound 10 µM, first compound 1 µM
[35] = second compound 10 µM, first compound 3.16 µM
[36] = second compound 10 µM, first compound 10 µM
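Also: spheroids exposed to the agents for 7 days.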
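For viability, T/C in this document: 100% = DMSO vehicle control viability.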

O=c1[nH]cc(F)c(=O)[nH]1 + Cc1[nH]c2ccc(F)cc2c1-c1nc2c3cccnc3c3ncccc3c2[nH]1
inactive: viability, T/C [1] 95.6% | viability, T/C [2] 88.1% | viability, T/C [3] 109% | viability, T/C [4] 91.7% | viability, T/C [5] 80.3% | viability, T/C [6] 89.5% | viability, T/C [7] 87.4% | viability, T/C [8] 87.7% | viability, T/C [9] 84.6% | viability, T/C [10] 83.5% | viability, T/C [11] 98.3% | viability, T/C [12] 101% | viability, T/C [13] 94.2% | viability, T/C [14] 76.8% | viability, T/C [15] 78.5% | viability, T/C [16] 107% | viability, T/C [17] 114% | viability, T/C [18] 109% | viability, T/C [19] 79.2% | viability, T/C [20] 94% | viability, T/C [21] 85.4% | viability, T/C [22] 87.2% | viability, T/C [23] 108% | viability, T/C [24] 86.7% | viability, T/C [25] 87.2% | viability, T/C [26] 83% | viability, T/C [27] 94.1% | viability, T/C [28] 95.8% | viability, T/C [29] 94% | viability, T/C [30] 76.1% | viability, T/C [31] 70.2% | viability, T/C [32] 76.2% | viability, T/C [33] 88.6% | viability, T/C [34] 57% | viability, T/C [35] 61.4% | viability, T/C [36] 61.4%
> 10 µM: IC50 (second compound 0.0316 µM) | IC50 (second compound 0.1 µM) | IC50 (second compound 0.316 µM) | IC50 (second compound 1 µM) | IC50 (second compound 3.16 µM) | IC50 (second compound 10 µM)

COc1ccc([C@@H](O)c2cc(-c3ncnc4cc(N5CCOCC5)ccc34)c(F)cc2Cl)nn1 + CN(C)c1ccc(Nc2c3ccc(NC(=O)CCN4CCCC4)cc3nc3cc(NC(=O)CCN4CCCC4)ccc23)cc1
> 10 µM: IC50 (second compound 0.0316 µM) | IC50 (second compound 0.1 µM) | IC50 (second compound 0.316 µM) | IC50 (second compound 1 µM) | IC50 (second compound 3.16 µM) | IC50 (second compound 10 µM)
inactive: viability, T/C [1] 90.2% | viability, T/C [2] 77.6% | viability, T/C [3] 102% | viability, T/C [4] 75% | viability, T/C [5] 72.4% | viability, T/C [6] 90% | viability, T/C [7] 97% | viability, T/C [8] 90.7% | viability, T/C [9] 78.9% | viability, T/C [10] 68.4% | viability, T/C [11] 78% | viability, T/C [12] 96.9% | viability, T/C [13] 85.9% | viability, T/C [14] 65.8% | viability, T/C [15] 90.1% | viability, T/C [16] 60.3% | viability, T/C [17] 81.9% | viability, T/C [18] 84.9% | viability, T/C [19] 77.8% | viability, T/C [20] 82.5% | viability, T/C [21] 86.6% | viability, T/C [22] 67.1% | viability, T/C [23] 100% | viability, T/C [24] 95.2% | viability, T/C [25] 84% | viability, T/C [26] 64.4% | viability, T/C [27] 93.8% | viability, T/C [28] 86.1% | viability, T/C [29] 108% | viability, T/C [30] 76.3% | viability, T/C [31] 82.9% | viability, T/C [32] 86.2% | viability, T/C [33] 93% | viability, T/C [34] 84.7% | viability, T/C [35] 95.2% | viability, T/C [36] 74.1%
